In patent US6197774A, “Pyrimidine derivative” (Otsuka Pharmaceutical Co., Ltd., priority 1997, dated 2001):

How the values were obtained:
[1] = Toxicity of compound against the cell strain RAW 264.7 (MTT); format: cell-based; settings: mouse, raw 264.7 cells, 1 × 10^-6 M, read-out: Ratio of optical absorbance
Procedure: [Toxicity test (Toxicity of compound against the cell strain RAW 264.7)]
Test was conducted in accordance with the method as described in J. Immunol. Methods, Vol. 94, pp. 57-68, (1986). Cell strain RAW 264.7 derived from the macrophage of mouse was incubated similarly as in the method of Test Example 1(1). After that, MTT reagent (5 mg/ml) in 1/10 amount of the culture medium was added to the cells, and incubated for 4 hours. The supernatant of culture medium was taken off, then the cells were collected by using 1% SDS solution and the optical absorbance at 570-630 nm of the SDS solution was measured.

contact hypersensitivity = assay: Contact hypersensitivity model in mouse (atopic dermatitis model); format: in vivo; settings: po, 2 mg/Kg p.o., 30 minutes before causal induction, 24 hours, read-out: Control % (intumescence of the pinna, untreated = 100)
Procedure: [Contact hypersensitivity model in mouse (Atopic dermatisis model)]
Test was conducted by referring to the method as described in "HIFU (a Japanese journal of dermatology)" Vol. 35, Supplemental Issue No. 15, pp. 96-106, published on March 1993.
CBA/J strain mice of 6-8 week age were used as the test animals (6-8 mice in one group). The mouse was sensitized by coating 150 μl of 5% of picryl chloride [dissolved in a mixture of acetone with olive oil (1:4)] on the shaved portion of skin in the back of mouse. […] 24 Hours after the causal induction, the effect for inhibiting contact hypersensitivity performed by the test compounds were evaluated by referring to the action for inhibiting intumescence of the pinna as an indication. The test compound was orally administered 30 minutes before the causal induction.
The following compounds were used for the test.
1) Compounds of the Present Invention:
(Dosage: 20 mg/Kg p.o., which is 7-10 times larger amount of dosages for compounds of the present invention)
The value obtained from the sensitization test without administration of the test compound was referred to as 100, and by comparing with the values obtained from the sensitization test with administration of the test compound was referred to "% control" values.

5-lipoxygenase = molecular target: T1, 5-lipoxygenase (Rattus norvegicus, UniProt P12527); assay: Activity for inhibiting 5-lipoxygenase in vitro (crude enzyme from rat basophilic leukemia-1 cells, 5-HETE RIA); format: biochemical; settings: 8 minutes at 25° C.
T1 construct: Thus obtained supernatant was collected and concentrated so as to obtain crude enzyme containing 5-lipoxygenase; host or cells: rat basophilic leukemia-1 cells
T1 sequence (P12527 1-673): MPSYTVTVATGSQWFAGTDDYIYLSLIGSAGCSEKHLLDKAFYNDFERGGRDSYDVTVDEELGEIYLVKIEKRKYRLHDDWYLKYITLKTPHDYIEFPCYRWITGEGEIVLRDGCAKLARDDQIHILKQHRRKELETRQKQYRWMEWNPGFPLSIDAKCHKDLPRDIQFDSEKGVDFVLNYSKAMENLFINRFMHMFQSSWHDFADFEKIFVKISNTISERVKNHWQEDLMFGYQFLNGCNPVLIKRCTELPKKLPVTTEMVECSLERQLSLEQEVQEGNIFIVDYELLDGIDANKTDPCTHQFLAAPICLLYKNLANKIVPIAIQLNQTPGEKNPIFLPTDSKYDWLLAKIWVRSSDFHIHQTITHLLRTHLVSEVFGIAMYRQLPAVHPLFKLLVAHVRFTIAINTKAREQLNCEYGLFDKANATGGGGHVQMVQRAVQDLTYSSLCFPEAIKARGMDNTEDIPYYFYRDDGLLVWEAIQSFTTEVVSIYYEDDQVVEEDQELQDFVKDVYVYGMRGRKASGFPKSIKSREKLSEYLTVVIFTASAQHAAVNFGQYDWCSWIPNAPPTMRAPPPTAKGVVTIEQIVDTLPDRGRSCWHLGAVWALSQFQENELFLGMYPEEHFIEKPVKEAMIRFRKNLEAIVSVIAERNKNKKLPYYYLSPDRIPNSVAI
Procedure: [Evaluation test of activity for inhibiting 5-lipoxygenase in vitro]
Pyrimidine derivative obtained in Example 1 was used as test compound.
Test was referred to the methods as described in Proc. Natl. Acad. Sci. U.S.A., Vol. 81, pp. 689-693 (1984) and J. Biol. Chem., Vol. 260, pp. 11554--11559 (1985).
(1) Preparation of Crude Enzyme Containing 5-lipoxygenase
RBI-1 cells (rat basophilic leukemia-1, ATCC, 1×10^8 cells) in 5 ml of buffer solution (50 mM Tris/1 mM EDTA, pH 7.4) were lysed with nitrogen cavitation bomb (mfd. by PARR Instrument Company) under 750 psi for 20 min at 4° C. The solution were centrifuged with twice volume of 50 mM Tris/1 mM EDTA (pH 7.4) at 5000 rpm for 10 minutes at 4° C. The supernatant of the solution was taken and further centrifuged at 37,500 rpm for 90 minutes at 4° C. Thus obtained supernatant was collected and concentrated so as to obtain crude enzyme containing 5-lipoxygenase. Its protein concentration was determined with Protein assey kit (mfd. by Pierce).
(2) Evaluation of Activity for Inhibiting 5-lipoxygenase (RIA assay)
12.5 μl of Crude enzyme, 61.5 μl of 50 mM Tris-HCl (mfd. by Sigma Chemical Co.), 12.5 μl of 0.5 mM ATP (mfd. by Sigma Chemical Co.), and 12.5 μl of cofacter solution (50 mM Tris-HCl (pH 7.2, at 25° C.) containing 10 mM glutahion, 14 mM of indomethacin and 500 mM of CaCl2.2H2 O) were preincubated for […] at 25° C. for reference solution as control. On the other hand, the test solution containing the test compound of Example 1 was prepared similarly as in the reference solution, except adding 1 μl of the test compound (1×10^-4, 1×10^-5, and 1×10^-6 M).
25 μl of 0.07 mM Arachidonic acid (mfd. by Sigma Chemical Co.) was added each of the reference solution and test solutin to intiate the reaction, and incubated it for 8 minutes at 25° C. The reaction was terminated by adding 40 μl of citric acid (mfd. by Sigma Chemical Co.). […]
RIA assay was conducted by the 5-HETE [^3 H] […] RIA assay to determine the amount of 5-lipoxygenase by counting radioactivity on the liquid scintillation counter (mfd. by Beckman Co.). […]

COCc1cc(=O)n2ncc(-c3ccc(Sc4ccccc4)cc3)c2[nH]1 [Example 1, 4,7-dihydro-5-methoxymethyl-7-oxo-3-(4-phenylthiophenyl)pyrazolo[1,5-a]pyrimidine]
viability at 1 µM [1]: 109%
response vs control in vivo at 2 mg/kg (contact hypersensitivity): 53.7%
inhibition at 100 µM (5-lipoxygenase; 1 × 10^-4 M): 24.3%
inhibition at 10 µM (5-lipoxygenase; 1 × 10^-5 M): 38.8%
inhibition at 1 µM (5-lipoxygenase; 1 × 10^-6 M): 68%
